Literature values in patent publication US20110213558A1, “METHOD FOR PREDICTING ACTIVATION ENERGY USING AN ATOMIC FINGERPRINT DESCRIPTOR OR AN ATOMIC DESCRIPTOR” (Bioinformatics & Molecular Design Research Center, priority 2008, published 2011).
Where two headings read alike, the source gives them in different places.

What was measured:
cytochrome P450 [1] = conditions: in vitro
cytochrome P450 [2] = conditions: in vitro; remark: listed apart in the source

Experimental metabolic rate (cytochrome P450 [1]; atom # 1)	Experimental metabolic rate (cytochrome P450 [1]; atom # 2)	Experimental metabolic rate (cytochrome P450 [1]; atom # 3)	Compound	Experimental metabolic rate (cytochrome P450 [2]; atom # 2)	Experimental metabolic rate (cytochrome P450 [2]; atom # 3)	Experimental metabolic rate (cytochrome P450 [2]; atom # 4)
0.2	99.8		CCc1ccccc1 [Ethylbenzene]			
			Clc1ccccc1 [Chlorobenzene]	17-19	5-9	71-79
			COc1ccccc1 [Methoxybenzene]	15-24	1-3	62-75
16.0	84.0		Cc1ccc(CCl)cc1 [1-chloromethyl-4-methyl-benzene]			
4.5	49	46.5	CCCCCC [Hexane]			
2.5	97.5		CCCCCCCC [Octane]			
